In brackets after ≈: the same amount, converted by molar mass. Read-outs that look alike come from different tables or passages of the source.
Columns and labels:
[1] = test system: Pasteurella hemolytica 22C; assay: broth-dilution microtiter MIC test; type: cell-based; conditions: Pasteurella, 22C
Protocol: (§1) The MIC's in Table III were determined by standard agar-dilution assays. The MIC's in Table IV were obtained using conventional brothdilution microtiter tests.

[2] = test system: Pasteurella multocida 22A; assay: broth-dilution microtiter MIC test; type: cell-based; conditions: Pasteurella multocida, 22A
Protocol: as §1

[3] = test system: Pasteurella hemolytica 41D; assay: broth-dilution microtiter MIC test; type: cell-based; conditions: Pasteurella, 41D
Protocol: as §1

[4] = test system: Mycoplasma gallisepticum 29C; assay: broth-dilution microtiter MIC test; type: cell-based; conditions: Mycoplasmoides gallisepticum, 29C
Protocol: as §1

[5] = test system: Mycoplasma gallisepticum 36H; assay: broth-dilution microtiter MIC test; type: cell-based; conditions: Mycoplasmoides gallisepticum, 36H
Protocol: as §1

[6] = test system: Mycoplasma hyopneumoniae S5972; assay: broth-dilution microtiter MIC test; type: cell-based; conditions: Mesomycoplasma hyopneumoniae, S5972
Protocol: as §1

[7] = test system: Pasteurella multocida 17E; assay: broth-dilution microtiter MIC test; type: cell-based; conditions: Pasteurella multocida, 17E
Protocol: as §1

[8] = test system: Pasteurella hemolytica 23C; assay: broth-dilution microtiter MIC test; type: cell-based; conditions: Pasteurella, 23C
Protocol: as §1

[9] = test system: Mycoplasma gallisepticum 15E; assay: broth-dilution microtiter MIC test; type: cell-based; conditions: Mycoplasmoides gallisepticum, 15E
Protocol: as §1

Mycoplasma hyorhinis 29E = assay: broth-dilution microtiter MIC test; type: cell-based; conditions: Mycoplasma, 29E
Protocol: as §1

[10] = test system: Bordetella bronchiseptica; assay: broth-dilution microtiter MIC test; type: cell-based; conditions: Bordetella bronchiseptica; broth-dilution microtiter; read-out: MIC
Protocol: as §1

[11] = test system: Pasteurella multocida 60A; assay: broth-dilution microtiter MIC test; type: cell-based; conditions: Pasteurella multocida, 60A
Protocol: as §1

[12] = test system: Pasteurella multocida 68C; assay: broth-dilution microtiter MIC test; type: cell-based; conditions: Pasteurella multocida, 68C
Protocol: as §1

Streptococcus sp. 19F = assay: broth-dilution microtiter MIC test; type: cell-based; conditions: Streptococcus, SP.19F
Protocol: as §1

[13] = test system: Pasteurella multocida 40G; assay: broth-dilution microtiter MIC test; type: cell-based; conditions: Pasteurella multocida, 40G
Protocol: as §1

[14] = test system: Staphylococcus aureus 19C; assay: broth-dilution microtiter MIC test; type: cell-based; conditions: Staphylococcus aureus, 19C
Protocol: as §1

Mycoplasma synoviae 40A = assay: broth-dilution microtiter MIC test; type: cell-based; conditions: Mycoplasmopsis synoviae, 40A
Protocol: as §1

[15] = test system: Staphylococcus aureus S13E; assay: microbe, parasite or virus in culture; type: cell-based; conditions: Staphylococcus aureus, S13E
Protocol: as §1

[16] = test system: Streptococcus pneumoniae Park I; assay: microbe, parasite or virus in culture; type: cell-based; conditions: Streptococcus pneumoniae
Protocol: as §1

[17] = test system: Streptococcus pyogenes C203; assay: protection of mice experimentally infected with S. pyogenes C203; type: in vivo; conditions: mice, mg/kg × 2, doses given 1 and 4 hours postinfection, read-out: ED50
Outline: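 Activity is given as ED50, the mg/kg dose (×2) protecting half of the mice infected with S. pyogenes C203. Compound was dosed 1 and 4 h after infection.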

[18] = test system: Staphylococcus aureus X1.1; assay: standard agar-dilution MIC assay; type: cell-based; conditions: Staphylococcus aureus, X1.1
Protocol: as §1

[19] = test system: Pseudomonas aeruginosa X239; assay: standard agar-dilution MIC assay; type: cell-based; conditions: Pseudomonas aeruginosa, X239; agar-dilution; read-out: MIC
Protocol: as §1

[20] = test system: Streptococcus Group D X66; assay: standard agar-dilution MIC assay; type: cell-based; conditions: read-out: MIC
Protocol: as §1

[21] = test system: Streptococcus pyogenes C203; assay: standard agar-dilution MIC assay; type: cell-based; conditions: Streptococcus pyogenes, C203
Protocol: as §1

[22] = test system: Staphylococcus aureus V41; assay: standard agar-dilution MIC assay; type: cell-based; conditions: Staphylococcus aureus, V41
Protocol: as §1

[23] = test system: Staphylococcus epidermidis EPI1; assay: standard agar-dilution MIC assay; type: cell-based; conditions: Staphylococcus epidermidis, EPI1
Protocol: as §1

[24] = test system: Klebsiella pneumoniae X68; assay: standard agar-dilution MIC assay; type: cell-based; conditions: Klebsiella pneumoniae, X68; agar-dilution; read-out: MIC
Protocol: as §1

[25] = test system: Haemophilus influenzae C.L.; assay: standard agar-dilution MIC assay; type: cell-based; conditions: Haemophilus influenzae
Protocol: as §1

[26] = test system: Haemophilus influenzae 76; assay: standard agar-dilution MIC assay; type: cell-based; conditions: Haemophilus influenzae, 76
Protocol: as §1

[27] = test system: Staphylococcus aureus X400; assay: standard agar-dilution MIC assay; type: cell-based; conditions: Staphylococcus aureus, X400
Protocol: as §1

Escherichia coli EC14 = assay: standard agar-dilution MIC assay; type: cell-based; conditions: agar-dilution, read-out: MIC
Protocol: as §1

[28] = test system: Streptococcus Group D 9960; assay: standard agar-dilution MIC assay; type: cell-based; conditions: GROUPD9960, read-out: MIC
Protocol: as §1

[29] = test system: Staphylococcus epidermidis 222; assay: standard agar-dilution MIC assay; type: cell-based; conditions: Staphylococcus epidermidis, 222
Protocol: as §1

[30] = test system: Streptococcus Group D 2041; assay: standard agar-dilution MIC assay; type: cell-based; conditions: GROUPD2041
Protocol: as §1

[31] = broth-dilution microtiter, read-out: MIC

SMILES | MIC [1] [µg/mL] | MIC [2] [µg/mL] | MIC [3] [µg/mL] | MIC [4] [µg/mL] | MIC [7] [µg/mL] | MIC [8] [µg/mL] | MIC [9] [µg/mL] | MIC [10] [µg/mL] | MIC [11] [µg/mL] | MIC [12] [µg/mL] | MIC (Streptococcus sp. 19F) [µg/mL] | MIC [13] [µg/mL] | MIC [14] [µg/mL] | MIC [15] [µg/mL] | ED50 ([17]; C203, Oral) [mg/kg] | ED50 ([17]; C203, sc, Subcutaneous) [mg/kg] | MIC [18] [µg/mL] | MIC [19] [µg/mL] | MIC [20] [µg/mL] | MIC [23] [µg/mL] | also measured
CCC1OC(=O)CC(O)C(C)C(OC2OC(C)C(OC3CC(C)(O)C(O)C(C)O3)C(N(C)C)C2O)C(CC=O)CC(C)C(=O)C=CC(C)=CC1COC1OC(C)C2OC(=O)OC2C1OC (stereo not drawn) [Compound 49, Macrocin-3'",4'"-Carbonate Derivative] | 50 (≈ 53.9 µM) | 25 (≈ 26.9 µM) | 50 (≈ 53.9 µM) | 0.195 (≈ 0.21 µM) | 12.5 (≈ 13.5 µM) | 25 (≈ 26.9 µM) | 25 (≈ 26.9 µM) | > 50 | 25 (≈ 26.9 µM) | 6.25 (≈ 6.73 µM) | 0.39 (≈ 0.42 µM) | 25 (≈ 26.9 µM) | 0.78 (≈ 0.84 µM) | 0.5 (≈ 0.539 µM) | 85.6 | 1 | 0.5 (≈ 0.539 µM) | > 128 | 1 (≈ 1.08 µM) | 1 (≈ 1.08 µM) | MIC [5, 31]: > 50 µg/mL; MIC [6, 31]: 0.097 µg/mL (≈ 0.105 µM); MIC (Mycoplasma hyorhinis 29E): 0.78 µg/mL (≈ 0.84 µM); MIC (Mycoplasma synoviae 40A): 0.195 µg/mL (≈ 0.21 µM); MIC ([16]; agar-dilution, read-out: MIC): 0.12 µg/mL (≈ 0.129 µM); MIC ([21]; agar-dilution, read-out: MIC): 0.12 µg/mL (≈ 0.129 µM); MIC [22]: 0.5 µg/mL (≈ 0.539 µM); MIC [24]: > 128 µg/mL; MIC [25]: 32 µg/mL (≈ 34.5 µM); MIC [26]: 16 µg/mL (≈ 17.2 µM); MIC [27]: 1 µg/mL (≈ 1.08 µM); MIC (Escherichia coli EC14): > 128 µg/mL; MIC [28]: 1 µg/mL (≈ 1.08 µM); MIC [29]: 0.25 µg/mL (≈ 0.269 µM)
CCC1OC(=O)CC(O)C(C)C(OC2OC(C)C(O)C(N(C)C)C2O)C(CCOc2ccccc2)CC(C)C(=O)C=CC(C)=CC1COC1OC(C)C=CC1OC (stereo not drawn) [Compound 43, 3",4"-Di(dehydrodeoxy)-20-DH-20-O-phenyl-lactenocin] | 50 (≈ 62.3 µM) | 50 (≈ 62.3 µM) | 50 (≈ 62.3 µM) | 0.39 (≈ 0.486 µM) | 25 (≈ 31.2 µM) | 50 (≈ 62.3 µM) | 50 (≈ 62.3 µM) | > 50 | 25 (≈ 31.2 µM) | 12.5 (≈ 15.6 µM) | 0.78 (≈ 0.973 µM) | 25 (≈ 31.2 µM) | 1.56 (≈ 1.95 µM) | 0.25 (≈ 0.312 µM) | 77.7 | > 10 | 0.25 (≈ 0.312 µM) | > 128 | 1 (≈ 1.25 µM) | 0.25 (≈ 0.312 µM) | MIC [5]: 25 µg/mL (≈ 31.2 µM); MIC [6]: 6.25 µg/mL (≈ 7.79 µM); MIC [16]: 0.5 µg/mL (≈ 0.623 µM); MIC [30]: 1 µg/mL (≈ 1.25 µM); MIC [21]: 0.25 µg/mL (≈ 0.312 µM); MIC ([22]; agar-dilution, Penicillin-resistant strain, read-out: MIC): 0.25 µg/mL (≈ 0.312 µM); MIC [24]: > 128 µg/mL; MIC [25]: 32 µg/mL (≈ 39.9 µM); MIC ([27]; agar-dilution, Methicillin-resistant strain, read-out: MIC): 0.25 µg/mL (≈ 0.312 µM); MIC (Escherichia coli EC14): > 128 µg/mL; MIC ([29]; agar-dilution, read-out: MIC): 0.12 µg/mL (≈ 0.15 µM)
CCC1OC(=O)CC(O)C(C)C(OC2OC(C)C(O)C(N(C)C)C2O)C(CC=O)CC(C)C(=O)C=CC(C)=CC1COC1OC(C)C2OC(=O)OC2C1OC (stereo not drawn) [Compound 51, Lactenocin-3",4"-Carbonate Derivative] | 12.5 (≈ 15.9 µM) | 6.25 (≈ 7.97 µM) | 12.5 (≈ 15.9 µM) | 0.39 (≈ 0.498 µM) | 6.25 (≈ 7.97 µM) | 25 (≈ 31.9 µM) | 50 (≈ 63.8 µM) | > 50 | 6.25 (≈ 7.97 µM) | 12.5 (≈ 15.9 µM) | 3.12 (≈ 3.98 µM) | 3.12 (≈ 3.98 µM) | 1.56 (≈ 1.99 µM) | 1 (≈ 1.28 µM) | > 100 | 1.1 | 1 (≈ 1.28 µM) | > 128 | 2 (≈ 2.55 µM) | 1 (≈ 1.28 µM) | MIC [5, 31]: > 50 µg/mL; MIC [6, 31]: 0.097 µg/mL (≈ 0.124 µM); MIC (Mycoplasma hyorhinis 29E; [31]): 3.2 µg/mL (≈ 4.08 µM); MIC (Mycoplasma synoviae 40A): 0.78 µg/mL (≈ 0.995 µM); MIC [16]: 0.25 µg/mL (≈ 0.319 µM); MIC [21]: 0.25 µg/mL (≈ 0.319 µM); MIC [22]: 2 µg/mL (≈ 2.55 µM); MIC [24]: > 128 µg/mL; MIC [25]: 8 µg/mL (≈ 10.2 µM); MIC [26]: 8 µg/mL (≈ 10.2 µM); MIC [27]: 2 µg/mL (≈ 2.55 µM); MIC (Escherichia coli EC14): > 128 µg/mL; MIC [28]: 2 µg/mL (≈ 2.55 µM); MIC [29]: 0.5 µg/mL (≈ 0.638 µM)
